Reference: patent publication US20040123348A1, “Method for producing a plant with a high-growth rate” (priority 2002, published 2004)

Key:
[1] = system: OsHDAC1 transcription product; test: Effect of ABA treatment on expression of OsHDAC1 transcription product in leaves of Ai::OsHDAC1 rice plant; type: cell-based; conditions: 20 μM ABA, MS medium
Protocol: While leaves of Ai::OsHDAC1 rice plant produced by above Example 5 was incubated in MS medium with or without 20 μM ABA, a total RNA was isolated from leaves at regular intervals to examine the expression level of OsHDAC1 transcription product. As the result, it was identified that the expression of the transcription product reaches at the maximum level one hour after ABA treatment and rapidly decreases after 6 hours. Then, callus cells, leaves and roots of rice plant were incubated in MS medium with or without 20 μM ABA for one hour, and a total RNA was extracted. […] Further, the same result could be confirmed from Western blot analysis of OsHDAC1 protein.

[2] = system: untransformed rice plant; test: Phenotype and growth in MS medium with 20 μM ABA, untransformed rice plant; type: in vivo; conditions: 2 weeks
Protocol: (§1) In order to investigate the effect of overexpression of OsHDAC1 on the phenotype and growth of Ai::OsHDAC1 rice plant, Ai::OsHDAC1 rice plant was incubated as the first generation and then, young seedlings or calluses at the second generation were transferred to MS medium with or without 20 μM ABA and incubated for 2 weeks. After incubation, the whole shape of rice plant, and leaves, collars and roots were observed. As the control group, untransformed rice plant was also observed. FIGS. 6a, 6b, 6c and 6d are photographs showing the growth and morphological change of Ai::OsHDAC1 rice plant, the change in the growth of leaves, the change of collars and the change of roots, respectively. In each drawing, NT denotes untransformed rice plant and lanes 2, 3 and 4 in FIGS. 6b, 6c and 6d denote respective individuals of transformed Ai::OsHDAC1 rice plant.

[3] = system: Ai::OsHDAC1 rice plant; test: Phenotype and growth in MS medium with 20 μM ABA, Ai::OsHDAC1 rice plant; type: in vivo; conditions: 2 weeks
Protocol: as §1

[4] = system: histone deacetylase; test: Effect of tricostatin A (TSA) treatment on histone H4 acetylation, immunoblot of rice callus cells; type: cell-based; conditions: 1 μM TSA with 20 μM ABA, 1 to 6 hours
Protocol: Rice callus cells, leaves and roots were incubated in MS medium with (+) or without (−) 20 μM ABA for one hour, transferred to MS medium containing 20 μM ABA and 1 μM TSA, incubated for 1 to 6 hours and then subjected to TSA treatment. Next, about 0.1 g of rice tissues was pulverized, homogenized with a buffer solution containing 50 mM Tris-HCl (pH 8.0), 150 mM NaCl, 10% glycerol, 0.5% Triton X-100, 2 mM phenylmethanesulfonyl fluoride, 1 μg/ml aprotinine, 1 μg/ml pepstatin and 1 μg/ml leupeptin, and then incubated at 4° C. for one hour. After incubation, the mixed solution was centrifuged at 4° C. for 5 minutes, and the protein concentration was determined using Bradford solution (BioRad, USA). The protein extract was separated from 12% SDS gel, transferred to polyvinylidene difluoride (PVDF) membrane (Immobilon-P, Millipore), and then reacted with mouse HDAC1 (mHDAC1), histone H4 (H4), acetylated histone (AcH4), the secondary antibody wherein primary antibody to acetylated histone H4 (AcH4) (Upstate Biotechnology, USA) is combined with alkaline phosphatase. […] Thus, it was confirmed that the expression of tetra-acetylated histone H4 as reduced in Ai::OsHDAC1 rice plant is increased again by TSA treatment.

SMILES | time after ABA treatment at which expression of the transcription product reaches the maximum level [1] | growth of untransformed plant in the presence of ABA [2] | growth of Ai::OsHDAC1 rice plant in the presence of ABA [3] | total H4 after TSA treatment [4] | expression level of tetra-acetylated histone H4 after TSA treatment ([4]; both Ai::OsHDAC1 and untransformed rice plant callus cells)
CC1=CC(=O)CC(C)(C)[C@@]1(O)/C=C/C(C)=C\C(=O)O [ABA, abscisic acid] | one | inhibition of growth | increase of growth |  | 
CC(/C=C/C(=O)NO)=C\[C@@H](C)C(=O)c1ccc(N(C)C)cc1 [TSA, tricostatin A] |  |  |  | substantially not changed | greatly increased
